Reference: ChEMBL document CHEMBL1133359, “New fluorogenic substrate for the first continuous steroid sulfatase assay” (Bioorg Med Chem Lett, 2000)

T1: Steryl-sulfatase (Homo sapiens) (UniProt P08842)
T1 sequence (whole entry): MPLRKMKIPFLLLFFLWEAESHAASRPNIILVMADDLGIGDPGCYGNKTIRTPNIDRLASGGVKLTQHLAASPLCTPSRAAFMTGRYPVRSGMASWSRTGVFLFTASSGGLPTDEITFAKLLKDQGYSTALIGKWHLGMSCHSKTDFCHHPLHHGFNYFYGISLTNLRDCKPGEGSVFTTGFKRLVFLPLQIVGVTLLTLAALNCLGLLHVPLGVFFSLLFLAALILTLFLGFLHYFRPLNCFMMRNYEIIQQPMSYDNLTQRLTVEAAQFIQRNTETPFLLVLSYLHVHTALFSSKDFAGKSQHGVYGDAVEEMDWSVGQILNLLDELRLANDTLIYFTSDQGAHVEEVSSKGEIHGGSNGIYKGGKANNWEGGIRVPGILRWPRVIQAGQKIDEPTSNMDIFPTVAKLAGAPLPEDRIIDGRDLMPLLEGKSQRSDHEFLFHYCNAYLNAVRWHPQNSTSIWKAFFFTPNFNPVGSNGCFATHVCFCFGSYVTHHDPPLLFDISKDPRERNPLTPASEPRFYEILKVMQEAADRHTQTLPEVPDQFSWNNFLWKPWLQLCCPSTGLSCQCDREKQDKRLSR

B1: Steryl-sulfatase (Homo sapiens), P08842 (protein)
chain: T1 sequence (whole entry)

Legend:
[1] = molecular target: T1, Steryl-sulfatase (Homo sapiens); test: kcat value was determined
[2] = molecular target: T1, Steryl-sulfatase (Homo sapiens); test: Inhibitory potency against recombinant human steroid sulfatase relative to compound 3 = 1
[3] = molecular target: T1, Steryl-sulfatase (Homo sapiens)
Description: Tested for relative inhibitory potency against recombinant human steroid sulfatase

[4] = compound: Cc1cc(=O)oc2cc(OS(N)(=O)=O)ccc12; test: (§1) Tested for inhibitory potency against recombinant human steroid sulfatase
[5] = compound: C[C@]12CC[C@@H]3c4ccc(OS(N)(=O)=O)cc4CC[C@H]3[C@@H]1CCC2=O; test: as §1
[6] = compound: O=c1oc2cc(OS(=O)(=O)O)ccc2c2ccccc12; test: as §1

Row | Molecule | rIC50 [2] | further results
1 | O=c1oc2cc(OS(=O)(=O)O)ccc2c2ccccc12 | – | k cat [1]: 0.24 s⁻¹
2 | NS(=O)(=O)Oc1ccc2c(c1)oc(=O)c1c3ccccc3oc21 | 5 | –
3 | C[C@]12CC[C@@H]3c4ccc(OS(N)(=O)=O)cc4CC[C@H]3[C@@H]1CCC2=O | – | rIC50 [3]: 1
4 | NS(=O)(=O)Oc1ccc2cc(-c3ccccc3)c(=O)oc2c1 | 48 | –
5 | NS(=O)(=O)Oc1ccc2c(c1)oc(=O)c1ccccc12 | 3 | –
6 | NS(=O)(=O)Oc1ccc2c(c1)oc(=O)c1c3ccc(O)cc3oc21 | 3.5 | –
7 | Cc1c(-c2ccccc2)c(=O)oc2ccc(OS(N)(=O)=O)cc12 | > 250 | –
8 | Cc1c(-c2ccccc2)c(=O)oc2cc(OS(N)(=O)=O)ccc12 | 11 | –
9 | NS(=O)(=O)Oc1ccc2c(c1)oc1c3ccccc3oc(=O)c21 | > 160 | –
10 | NS(=O)(=O)Oc1ccc2cc(-c3nc4ccccc4s3)c(=O)oc2c1 | > 250 | –
11 | Cc1cc(=O)oc2cc(OS(N)(=O)=O)ccc12 | 30 | –
12 | B1 | – | Km [4]: 275 µM; Km [5]: 95 µM; Km [6]: 22.5 µM
